In patent publication US20260258048A1, “LACTAM-CONTAINING IMIDAZOPYRIDAZINE IL-17 INHIBITOR COMPOUNDS” (Janssen Pharmaceutica NV, priority 2023, published 2026) one finds IC50 data, which are given here for 22 compounds.

Assay [1] concerns IL-17A-induced G-CSF production in human normal keratinocyte (NHK). As to the kind of experiment: NHK assay: IL-17A-induced G-CSF production in normal human keratinocytes. To be noted: 24 h, IL-17A 5 ng/mL, class of the average IC50 where tested more than once. The assay is classed as cell-based. The essentials:
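Adult keratinocytes at 3000-4000 cells/well; recombinant human IL-17A pre-incubated 1 h at rt with titrated compound, then added to cells (final 5 ng/mL IL-17A, 0.2% DMSO, 5% FBS) for 24 h at 37 °C. Supernatant G-CSF quantified by HTRF against a standard curve to give IC50; viability checked by CellTiter-Glo versus DMSO.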

Assay [2] addresses IL-17A(FLAG-tagged): IL-17RA(His-tagged) (Homo sapiens, UniProt Q16552, K93Q). Nature of the assay: IL-17A(FLAG-tagged): IL-17RA(His-tagged) binding disruption Eu-HTRF assay. To be noted: class of the average IC50 where tested more than once. In a few lines: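 Compound (22-point, 2-fold series) was pre-incubated 1 h at rt with FLAG-IL-17A, added as a 2× solution (1 μM). A 2× mix of C-terminal 10×His IL-17RA, Eu-anti-FLAG donor and D2-anti-His acceptor in PBS/0.01% Triton X-100/200 mM KF was then added for 2 h at rt. The 665/615 nm ratio was fitted to one-site competition for IC50.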
(TR-FRET usually uses a lanthanide donor and a delayed reading to cut background.)

For orientation: IC50 means the concentration at which inhibition is half-maximal.

Chain of UniProt Q16552 (Q16552 with tags, fused parts or gaps K93Q): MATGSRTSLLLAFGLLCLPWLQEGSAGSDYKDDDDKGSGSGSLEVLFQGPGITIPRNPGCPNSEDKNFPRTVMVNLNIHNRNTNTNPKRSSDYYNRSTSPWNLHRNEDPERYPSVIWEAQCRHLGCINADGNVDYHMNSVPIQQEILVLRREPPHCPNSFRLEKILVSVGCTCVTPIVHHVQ

As for `CC1(C)CC(Cc2cnn3cc([C@@H](NC(=O)c4nonc4C4CC4)C4CCC(F)(F)CC4)nc3c2)C(=O)N1` (single isomer, unassigned) [Example 13, 4-Cyclopropyl-N—[(S)-(4,4-difluorocyclohexyl)-[7-[[(3R*)-5,5-dimethyl-2-oxo-pyrrolidin-3-yl]methyl]imidazo[1,2-b]pyridazin-2-yl]methyl]-1,2,5-oxadiazole-3-carboxamide], the concentration for half-maximal inhibition (IC50) was 0.4 to 4 µM in assay [1] (Homo sapiens, Keratinocyte) and below 400 nM in assay [2].
In the case of `CC1(C)C[C@H](Cc2cnn3cc([C@@H](NC(=O)c4nonc4C4CC4)C4CCC(F)(F)CC4)nc3c2)C(=O)N1` (single isomer, unassigned) [Example 14], the IC50 was above 4 µM in assay [1] (Homo sapiens, Keratinocyte) and above 4000 nM in assay [2].
As for `CC1(C)CNC(=O)C1Cc1cnn2cc([C@@H](NC(=O)c3nonc3C3CC3)C3CCC(F)(F)CC3)nc2c1` (single isomer, unassigned) [Example 15, 4-Cyclopropyl-N—[(S)-(4,4-difluorocyclohexyl)-[7-[[(3R*)-4,4-dimethyl-2-oxo-pyrrolidin-3-yl]methyl]imidazo[1,2-b]pyridazin-2-yl]methyl]-1,2,5-oxadiazole-3-carboxamide], the IC50 in assay [1] (Homo sapiens, Keratinocyte) is above 4 µM; in assay [2], above 4000 nM.
Consider `CC1(C)CNC(=O)C1Cc1cnn2cc([C@@H](NC(=O)c3nonc3C3CC3)C3CCC(F)(F)CC3)nc2c1` (single isomer, unassigned) [Example 16, 4-Cyclopropyl-N—[(S)-(4,4-difluorocyclohexyl)-[7-[[(3S*)-4,4-dimethyl-2-oxo-pyrrolidin-3-yl]methyl]imidazo[1,2-b]pyridazin-2-yl]methyl]-1,2,5-oxadiazole-3-carboxamide], for which the IC50 in assay [1] is above 4 µM; in assay [2], 400 to 4000 nM.
Consider `O=C(N[C@H](c1cn2ncc(C[C@@]34CC[C@H](C3)NC4=O)cc2n1)C1CCC(F)(F)CC1)c1nonc1C1CC1` (single isomer, unassigned) [Example 17], for which the IC50 in assay [1] (Homo sapiens, Keratinocyte) was above 4 µM; in assay [2] it was 400 to 4000 nM.
Taken in the same sequence, the figures for `O=C(N[C@H](c1cn2ncc(C[C@]34CC[C@@H](C3)NC4=O)cc2n1)C1CCC(F)(F)CC1)c1nonc1C1CC1` (single isomer, unassigned) [Example 18] were 0.4 to 4 µM and 400 to 4000 nM.
As to `CC[C@@H](c1cnn2cc([C@@H](NC(=O)c3nonc3C3CC3)C3CCC(F)(F)CC3)nc2c1)[C@@H]1C[C@@H](C(F)(F)F)NC1=O` (single isomer, unassigned) [Example 19], the IC50 is below 0.4 µM in assay [1] (Homo sapiens, Keratinocyte) and below 400 nM in assay [2].
On the same counts, the results for `O=C(N[C@H](c1cn2ncc(CC3CCNC3=O)cc2n1)C1CCC(F)(F)CC1)c1nonc1C1CC1` (single isomer, unassigned) [Example 21, 4-Cyclopropyl-N—[(S)-(4,4-difluorocyclohexyl)-[7-[[(3R*)-2-oxopyrrolidin-3-yl]methyl]imidazo[1,2-b]pyridazin-2-yl]methyl]-1,2,5-oxadiazole-3-carboxamide] are above 4 µM and 400 to 4000 nM.
As to `O=C(N[C@H](c1cn2ncc(CC3CCNC3=O)cc2n1)C1CCC(F)(F)CC1)c1nonc1C1CC1` (single isomer, unassigned) [Example 22, 4-Cyclopropyl-N—[(S)-(4,4-difluorocyclohexyl)-[7-[[(3S*)-2-oxopyrrolidin-3-yl]methyl]imidazo[1,2-b]pyridazin-2-yl]methyl]-1,2,5-oxadiazole-3-carboxamide], the IC50 is above 4 µM in assay [1] and above 4000 nM in assay [2].
For the compound `O=C(N[C@H](c1cn2ncc(CC3CCCCNC3=O)cc2n1)C1CCC(F)(F)CC1)c1nonc1C1CC1` (single isomer, unassigned) [Example 25, 4-Cyclopropyl-N—((S)-(4,4-difluorocyclohexyl(7-(((R*)-2-oxoazepan-3-yl)methyl)imidazo[1,2-b]pyridazin-2-yl)methyl)-1,2,5-oxadiazole-3-carboxamide], the IC50 in assay [1] (Homo sapiens, Keratinocyte) is above 4 µM; in assay [2], 400 to 4000 nM.
On to `O=C(N[C@H](c1cn2ncc(CC3CCCCNC3=O)cc2n1)C1CCC(F)(F)CC1)c1nonc1C1CC1` (single isomer, unassigned) [Example 26, 4-Cyclopropyl-N—((S)-(4,4-difluorocyclohexyl)(7-(((S*)-2-oxoazepan-3-yl)methyl)imidazo[1,2-b]pyridazin-2-yl)methyl)-1,2,5-oxadiazole-3-carboxamide], for which the IC50 in assay [1] was above 4 µM; in assay [2] it was 400 to 4000 nM.
Taken in the same sequence, the figures for `CC1(Cc2cnn3cc([C@@H](NC(=O)c4nonc4C4CC4)C4CCC(F)(F)CC4)nc3c2)CCCNC1=O` (single isomer, unassigned) [Example 27, 4-Cyclopropyl-N—((S)-(4,4-difluorocyclohexyl)(7-(((R*)-3-methyl-2-oxopiperidin-3-yl)methyl)imidazo[1,2-b]pyridazin-2-yl)methyl)-1,2,5-oxadiazole-3-carboxamide] were above 4 µM and 400 to 4000 nM.
Take `CC1(Cc2cnn3cc([C@@H](NC(=O)c4nonc4C4CC4)C4CCC(F)(F)CC4)nc3c2)CCCNC1=O` (single isomer, unassigned) [Example 28, 4-Cyclopropyl-N—((S)-(4,4-difluorocyclohexyl)(7-(((S*)-3-methyl-2-oxopiperidin-3-yl)methyl)imidazo[1,2-b]pyridazin-2-yl)methyl)-1,2,5-oxadiazole-3-carboxamide]: the IC50 is 0.4 to 4 µM in assay [1] and below 400 nM in assay [2].
Turning to `O=C(N[C@H](c1cn2ncc([C@H]3C[C@]34C[C@@H](C(F)(F)F)NC4=O)cc2n1)C1CCC(F)(F)CC1)c1nonc1C1CC1` (single isomer, unassigned) [Example 40], the IC50 in assay [1] (Homo sapiens, Keratinocyte) was above 4 µM; in assay [2], above 4000 nM.
For the compound `O=C(N[C@H](c1cn2ncc(CC3C[C@@H](C4CC4)NC3=O)cc2n1)C1CCC(F)(F)CC1)c1nonc1C1CC1` (single isomer, unassigned) [Example 42, 4-Cyclopropyl-N—((S)-(7-(((3S*,5S)-5-cyclopropyl-2-oxopyrrolidin-3-yl)methyl)imidazo[1,2-b]pyridazin-2-yl)(4,4-difluorocyclohexyl)methyl)-1,2,5-oxadiazole-3-carboxamide], the IC50 in assay [1] is below 0.4 µM; in assay [2] it was below 400 nM.
On the same counts, the results for `O=C(N[C@H](c1cn2ncc(CC3C[C@@H](C4CC4)NC3=O)cc2n1)C1CCC(F)(F)CC1)c1nonc1C1CC1` (single isomer, unassigned) [Example 43, 4-Cyclopropyl-N—((S)-(7-(((3R*,5S)-5-cyclopropyl-2-oxopyrrolidin-3-yl)methyl)imidazo[1,2-b]pyridazin-2-yl)(4,4-difluorocyclohexyl)methyl)-1,2,5-oxadiazole-3-carboxamide] are above 4 µM and 400 to 4000 nM.
On to `O=C(N[C@H](c1cn2ncc(CC3C(=O)NCC3C(F)(F)F)cc2n1)C1CCC(F)(F)CC1)c1nonc1C1CC1` (single isomer, unassigned) [Example 50], for which the IC50 in assay [1] (Homo sapiens, Keratinocyte) was above 4 µM; in assay [2], 400 to 4000 nM.
Take `CC1(Cc2cnn3cc([C@@H](NC(=O)c4nonc4C4CC4)C4CCC(F)(F)CC4)nc3c2)CCNC1=O` (single isomer, unassigned) [Example 53, 4-Cyclopropyl-N—((S)-(4,4-difluorocyclohexyl)(7-(((R*)-3-methyl-2-oxopyrrolidin-3-yl)methyl)imidazo[1,2-b]pyridazin-2-yl)methyl)-1,2,5-oxadiazole-3-carboxamide]: the IC50 in assay [1] was 0.4 to 4 µM; in assay [2], 400 to 4000 nM.
On to `CC1(Cc2cnn3cc([C@@H](NC(=O)c4nonc4C4CC4)C4CCC(F)(F)CC4)nc3c2)CCNC1=O` (single isomer, unassigned) [Example 54, 4-Cyclopropyl-N—((S)-(4,4-difluorocyclohexyl)(7-(((S*)-3-methyl-2-oxopyrrolidin-3-yl)methyl)imidazo[1,2-b]pyridazin-2-yl)methyl)-1,2,5-oxadiazole-3-carboxamide], for which the IC50 in assay [1] is above 4 µM; in assay [2], 400 to 4000 nM.
For the compound `C[C@@]1(C(F)(F)F)CC(Cc2cnn3cc([C@@H](NC(=O)c4nonc4C4CC4)C4CCC(F)(F)CC4)nc3c2)C(=O)N1` (single isomer, unassigned) [Example 56, 4-Cyclopropyl-N—((S)-(4,4-difluorocyclohexyl)(7-(((3R*,5S)-5-methyl-2-oxo-5-(trifluoromethyl)pyrrolidin-3-yl)methyl)imidazo[1,2-b]pyridazin-2-yl)methyl)-1,2,5-oxadiazole-3-carboxamide], the results for the IC50 in assay [1] and in assay [2] were 0.4 to 4 µM and 400 to 4000 nM, respectively.
Taken in the same sequence, the figures for `CC(C)(CC[C@H](NC(=O)c1nonc1C1CC1)c1cn2ncc(CC3C[C@@](C)(C(F)(F)F)NC3=O)cc2n1)C(F)(F)F` (single isomer, unassigned) [Example 58, 4-Cyclopropyl-N—((S)-5,5,5-trifluoro-4,4-dimethyl-1-(7-(((3R*,5S)-5-methyl-2-oxo-5-(trifluoromethyl)pyrrolidin-3-yl)methyl)imidazo[1,2-b]pyridazin-2-yl)pentyl)-1,2,5-oxadiazole-3-carboxamide] were 0.4 to 4 µM and below 400 nM.
Regarding `O=C(N[C@H](c1cn2ncc([C@@H](O)[C@@H]3C[C@H](C(F)(F)F)NC3=O)cc2n1)C1CCC(F)(F)CC1)c1nonc1C1CC1` (single isomer, unassigned) [Example 76], the IC50 in assay [1] (Homo sapiens, Keratinocyte) is 0.4 to 4 µM; in assay [2], above 4000 nM.
